Assay results taken from ChEMBL document CHEMBL1159292, “New antifungal bithienylacetylenes from Blumea obliqua” (1995).
In brackets after ≈: the same amount, converted by molar mass. Activity calls are given as the source filed them. The rule behind the calls is not given here.

What was measured:
[1] = test system: Salmonella enterica subsp. enterica serovar Typhi str. CT18; assay: Antibacterial activity against Salmonella typhi by agar well diffusion method; type: functional, organism-based
Shigella boydii = assay: Antibacterial activity against Shigella boydii by agar well diffusion method; type: functional, organism-based
Escherichia coli = assay: Antibacterial activity against Escherichia coli by agar well diffusion method; type: functional, organism-based
Epidermophyton floccosum = assay: Antifungal activity against Epidermophyton floccosum after 7 days by tube dilution method; type: functional; conditions: 168 h
Enterococcus faecalis = assay: Antibacterial activity against Streptococcus faecalis by agar well diffusion method; type: functional, organism-based
Pleurotus ostreatus = assay: Antifungal activity against Pleurotus ostreatus after 7 days by tube dilution method; type: functional; conditions: 168 h
[2] = test system: Corynebacterium diphtheriae; assay: Antibacterial activity against Corynebacterium diphtheriae by agar well diffusion method; type: functional, organism-based
Staphylococcus aureus = assay: Antibacterial activity against Staphylococcus aureus by agar well diffusion method; type: functional, organism-based

Row | SMILES | Activity [1] | Activity (Shigella boydii) | Activity (Escherichia coli) | MIC (Epidermophyton floccosum) [µg/mL] | Activity (Enterococcus faecalis) | MIC (Pleurotus ostreatus) [µg/mL] | Activity [2] | Activity (Staphylococcus aureus)
1 | Cc1ccc(-c2ccc(C#CCCOC(=O)CC(C)C)s2)s1 | Active | Active | Active | 200 (≈ 602 µM) | Active | 200 (≈ 602 µM) | Active | Active
2 | C=CC#Cc1ccc(-c2ccc(COC(=O)CC(C)C)s2)s1 | – | – | – | 200 (≈ 605 µM) | – | 200 (≈ 605 µM) | – | –
3 | COC1=CC(=O)C[C@@H](C)[C@]12Oc1c(Cl)c(OC)cc(OC)c1C2=O [GRISEOFULVIN] | – | – | – | 250 (≈ 709 µM) | – | 250 (≈ 709 µM) | – | –
